{"source": "patent US10590137B2", "about": "“Mercaptopurine hemihydrate” (THE REGENTS OF THE UNIVERSITY OF MICHIGAN, priority 2016, dated 2020)", "key": {"[1]": {"assay": "pharmacokinetic studies in rats (oral suspension vs IV)", "assay_type": "in vivo, Male Sprague-Dawley rats", "details": "rat; for % F (bioavailability): oral 30 mg/kg vs IV 15 mg/kg monohydrate; for AUC / Cmax / Tmax: oral gavage 30 mg/kg suspension, 30 mg/kg; for AUC / Cmax: plasma", "procedure": "The bioavailability of the three forms was determined by comparison of suspension and intravenous administration in order to quantify the effect. […] Since the Tmax of the hemihydrate was much higher than the other two forms, it seems more compound was able to be absorbed overall even though over a somewhat longer time period, whereas the monohydrate and anhydrate were limited due to the solubility of the monohydrate form (FIG. 3).\nPharmacokinetic studies in rats were performed at Avastus Preclinical Services, Cambridge, Mass. All procedures were performed in accordance with the Guide for Care and Use of Laboratory Animals and were approved by the Avastus Institutional Animal Care and Use Committee. Male Sprague-Dawley rats weighing 200-300 g were dosed with mercaptopurine via oral gavage with a dosing volume of 5 mL/kg and a dose of 30 mg mercaptopurine form/kg or via IV administration at a dosing volume of 5 mL/kg and a dose of 15 mg mercaptopurine monohydrate/kg. Each group consisted of three rats, with one oral administration group for each form of mercaptopurine, and one IV administration group using the monohydrate form for reference. Blood samples were collected at time points of 15, 30, 60, 120, 240 minutes as well as 8 and 24 hours post dose. An additional time point at 5 minutes was taken for the IV administration group. Samples were centrifuged and the decanted plasma samples were stored at −80° C. until analysis.\nThe plasma samples were analyzed via LC-MS/MS using an Agilent 6410 mass spectrometer coupled with an Agilent 1200 HPLC and a CTC PAL chilled autosampler, all controlled by MassHunter software (Agilent). All plasma samples were crashed with three volumes of methanol containing an […] and centrifuged to remove precipitated protein before analysis. Samples were compared to a calibration curve prepared in rat blank plasma. Separation was performed on a C18 reverse phase HPLC column (Kinetex PFP, 2.6 μm, 2.1×50 mm) using an acetonitrile-water gradient system and peaks were analyzed by MS using ESI ionization in MRM mode. Peak area ratio to internal standard is used to interpolate plasma concentration for each sample from the calibration curve of peak area internal standard ratio to concentration. Pharmacokinetic parameters were fit using a custom WinNonlin analysis with PO dosing analysis. Area under the curve (AUC) for mercaptopurine was also calculated using the custom WinNonlin analysis. Cmax (maximum plasma concentration) and Tmax (time to reach maximum plasma concentration) were determined by visual inspection of the experimental data. The bioavailability (% F) was calculated from the following equation:\n[formula] Frel was calculated with respect to the monohydrate form."}, "[2]": {"assay": "stability to hydration: slurry conversion monitored by non-contact Raman probe", "assay_type": "physicochemical", "details": "aqueous slurry; for time to convert to the monohydrate form: full conversion", "procedure": "In order to determine the stability to hydration, slurries of the anhydrate and hemihydrate forms were monitored using a non-contact Raman probe.\nRaman spectra during slurry conversion were collected using a Kaiser Optical Systems Raman Rxn Microprobe equipped with a Multi-Rxn non-contact optic, 785 nm laser, and a multi-channel CCD detector. Spectra were collected with a range of 150-3425 cm^−1 and then analyzed using the HoloGRAMS 4.1 software package (Kaiser). Calibration was performed using a HoloLab Calibration Accessory and a cyclohexane standard."}, "[3]": {"assay": "maximum solubility in water by turbidity measurements (CrystalBreeder)", "details": "at 37° C., Van't Hoff", "method": "(§1) Solubility measurements were taken using a CrystalBreeder system (Technobis). Known amounts of solid compound and water were added to 0.3 mL clear round bottom vials equipped with a stir bar. The vials were sealed with a Teflon coated rubber crimped caps to prevent evaporation of solvent. Vials were loaded into one of the independently heated aluminum reactor blocks and turbidity measurements were taken using an LED light source and detector to measure particles in solution. Samples were heated to 85° C. at a rate of 0.2° C./min, held at 85° C. for 30 minutes, and then cooled to 0° C. at a rate of 0.2° C./min. Clear points were calculated based on the temperature at which 100% transmittance of solution was reached. Van't Hoff plots of concentration vs. time were produced from the data using CrystalClear software (Technobis) to determine the solubility of each form at different temperatures."}, "[4]": {"assay": "thermally-induced phase transitions by DSC and variable temperature PXRD", "assay_type": "physicochemical", "details": "for loss of crystallinity corresponding with a loss of water: variable temperature PXRD, conversion to anhydrate", "procedure": "DSC analysis and variable temperature PXRD were used to analyse the thermally-induced phase transitions of the compounds.\nVariable temperature PXRD data were collected on a Rigaku SmartLab diffractometer using Cu-Kα radiation (λ=1.54187 Å) and operating at 40 kV and 44 mA. Samples were placed on a glass cover slip on top of a copper block that was heated at 2° C./min using a J-KEM Model 210 temperature controller. The setup was covered with a housing of Kapton to keep heat in but allow X-rays to penetrate. The spectrum was collected by scanning […] from 20 to 29° with a step size of 0.01° and a step speed of 0.1 seconds. Powder patterns were processed using Jade 8 XRD Pattern Processing, Identification & Quantification analysis software.^1\nThermograms of the monohydrate and hemihydrate forms were recorded on a TA Instruments Q20 DSC. […] Calibration of the instrument was performed using an indium standard. Thermograms were analyzed using TA Universal Analysis 2000, V 4.5A."}, "some cancer lines": {"system": "some cancer lines", "details": "cited from earlier work"}, "[5]": {"details": "at 37° C.; background statement; cited from earlier work"}, "physchem": {"assay": "physchem", "details": "water, 37 °C, thermodynamic from solid", "method": "as §1"}}, "note": "Like-named read-outs stand apart in the source and are kept apart here."}
{"smiles": "Sc1ncnc2nc[nH]c12", "note": "[Anhydrate, mercaptopurine]", "values": [{"measurement": "% F (bioavailability)", "setting": "[1]", "result": 2.9, "unit": "%"}, {"measurement": "AUC", "setting": "[1]", "result": "430 ± 30", "unit": "ng·h/mL"}, {"measurement": "Cmax", "setting": "[1]", "result": "260 ± 10", "unit": "ng/mL"}, {"measurement": "Tmax", "setting": "[1]", "result": "49.8 ± 17.4", "unit": "min"}, {"measurement": "time to convert to the monohydrate form", "setting": "[2]", "result": "2 to 5", "unit": "h"}, {"measurement": "average solubility in water", "setting": "[3]", "result": 400, "unit": "µg/mL"}]}
{"smiles": "Sc1ncnc2nc[nH]c12", "note": "[Hemihydrate, mercaptopurine hemihydrate]", "values": [{"measurement": "% F (bioavailability)", "setting": "[1]; hemihydrate", "result": 3.8, "unit": "%"}, {"measurement": "AUC", "setting": "[1]; hemihydrate", "result": "570 ± 120", "unit": "ng·h/mL"}, {"measurement": "Cmax", "setting": "[1]; hemihydrate", "result": "280 ± 110", "unit": "ng/mL"}, {"measurement": "Tmax", "setting": "[1]; hemihydrate", "result": "100 ± 34.8", "unit": "min"}, {"measurement": "dehydration temperature (water loss, endothermic event)", "setting": "[4]; DSC / variable temperature PXRD", "result": 240, "unit": "°C"}, {"measurement": "loss of crystallinity corresponding with a loss of water", "setting": "[4]; hemihydrate", "result": "does not show any loss of crystallinity"}, {"measurement": "time to convert to the monohydrate form", "setting": "[2]; hemihydrate", "result": "approximately 70 hours"}, {"measurement": "time at which conversion to the monohydrate begins", "setting": "[2]; onset", "result": "approximately 5 hours"}, {"measurement": "average solubility in water", "setting": "[3]; hemihydrate", "result": 390, "unit": "µg/mL"}]}
{"smiles": "S=c1[nH]cnc2nc[nH]c12", "note": "[Mercaptopurine]", "values": [{"measurement": "IC50", "setting": "some cancer lines", "result": 500, "unit": "nM"}]}
{"smiles": "Sc1ncnc2nc[nH]c12", "note": "[Monohydrate, mercaptopurine monohydrate]", "values": [{"measurement": "Cmax", "setting": "[1]; male, Sprague-Dawley, po, read-out: Cmax", "result": "230 ± 50", "unit": "ng/mL"}, {"measurement": "% F (bioavailability)", "setting": "[1]; monohydrate", "result": 1.4, "unit": "%"}, {"measurement": "AUC", "setting": "[1]; monohydrate", "result": "210 ± 60", "unit": "ng·h/mL"}, {"measurement": "Tmax", "setting": "[1]; monohydrate", "result": "49.8 ± 17.4", "unit": "min"}, {"measurement": "Tmax of merged endothermic event (water loss and loss of crystallinity)", "setting": "[4]; open DSC pan", "result": 177, "unit": "°C"}, {"measurement": "loss of crystallinity event", "setting": "[4]; sealed DSC pan", "result": "~190", "unit": "°C"}, {"measurement": "water loss event", "setting": "[4]; sealed DSC pan", "result": "~140", "unit": "°C"}, {"measurement": "loss of crystallinity corresponding with a loss of water", "setting": "[4]; monohydrate", "result": "~160", "unit": "°C"}, {"measurement": "water solubility", "setting": "[5]", "result": 249, "unit": "µg/mL"}, {"measurement": "solubility", "setting": "physchem", "result": 249, "unit": "µg/mL"}]}
